# Measurements taken from ChEMBL document CHEMBL1201862, “PubChem BioAssay data set” (2004).
#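 How tested: cells in 96-well plates exposed to compound for 48 hours at five concentrations. GI50 = concentration required for 50% inhibition of growth.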 The source made the active and inactive calls. Rule as the data show it: active = GI50 up to about 1.1 µM and inactive = higher.
# Tests used:
# Assay in all cases: inhibition of tumour cell growth, NCI panel, 48 h
# HOP-62 = tested on: HOP-62
# HOP-18 = tested on: HOP-18
# UO-31 = tested on: UO-31
# SF-295 = tested on: SF-295
# EKVX = tested on: EKVX
# IGROV-1 = tested on: IGROV-1
# HCT-15 = tested on: HCT-15
# NCI-H522 = tested on: NCI-H522
# SF-539 = tested on: SF-539
# KM-20L2 = tested on: KM-20L2
# CCRF-CEM = tested on: CCRF-CEM
# SF-268 = tested on: SF-268
# NCI-H23 = tested on: NCI-H23
# OVCAR-8 = tested on: OVCAR-8
# SK-MEL-5 = tested on: SK-MEL-5
# HCT-116 = tested on: HCT-116
# NCI-H226 = tested on: NCI-H226
# CAKI-1 = tested on: CAKI-1
# A549 = tested on: A549
# SW-620 = tested on: SW-620
# SR = tested on: SR
# HT-29 = tested on: HT-29
# MOLT-4 = tested on: MOLT-4
# A498 = tested on: A498
# DMS-273 = tested on: DMS-273
# SNB-78 = tested on: SNB-78
# NCI-H460 = tested on: NCI-H460
# Malme-3M = tested on: Malme-3M
# U-251 = tested on: U-251
# COLO 205 = tested on: COLO 205
# RPMI-8226 = tested on: RPMI-8226
# DLD-1 = tested on: DLD-1
# DMS-114 = tested on: DMS-114
# UACC-62 = tested on: UACC-62
# SK-OV-3 = tested on: SK-OV-3
# HL-60 = tested on: HL-60
# SN12C = tested on: SN12C
# M19-MEL = tested on: M19-MEL
# M14 = tested on: M14
# OVCAR-3 = tested on: OVCAR-3
# OVCAR-5 = tested on: OVCAR-5
# HCC 2998 = tested on: HCC 2998
# TK-10 = tested on: TK-10
# OVCAR-4 = tested on: OVCAR-4
# K562 = tested on: K562
# RXF 393 = tested on: RXF 393
# LXFL 529 = tested on: LXFL 529
# RXF 631 = tested on: RXF 631
# SK-MEL-2 = tested on: SK-MEL-2
# UACC-257 = tested on: UACC-257
# LOX IMVI = tested on: LOX IMVI
# SNB-19 = tested on: SNB-19
# SNB-75 = tested on: SNB-75
# ACHN = tested on: ACHN
# KM12 = tested on: KM12
# SK-MEL-28 = tested on: SK-MEL-28
# 786-0 = tested on: 786-0
# HOP-92 = tested on: HOP-92
structure (smiles),measurement,setting,value
COc1ccc(C(=O)Cc2cc(OC)ccc2OC)cc1,GI50,HOP-62,66.1 µM (inactive)
same,GI50,HOP-18,> 100 µM (inactive)
same,GI50,UO-31,> 100 µM (inactive)
same,GI50,SF-295,48.9 µM (inactive)
same,GI50,EKVX,> 100 µM (inactive)
same,GI50,IGROV-1,> 100 µM (inactive)
same,GI50,HCT-15,> 100 µM
same,GI50,NCI-H522,43.3 µM (inactive)
same,GI50,SF-539,> 100 µM (inactive)
same,GI50,KM-20L2,> 100 µM (inactive)
same,GI50,CCRF-CEM,> 100 µM (inactive)
same,GI50,SF-268,61.4 µM (inactive)
same,GI50,NCI-H23,> 100 µM (inactive)
same,GI50,OVCAR-8,> 100 µM (inactive)
same,GI50,SK-MEL-5,> 100 µM (inactive)
same,GI50,HCT-116,> 100 µM (inactive)
same,GI50,NCI-H226,> 100 µM (inactive)
same,GI50,CAKI-1,> 100 µM (inactive)
same,GI50,A549,> 100 µM (inactive)
same,GI50,SW-620,> 100 µM (inactive)
same,GI50,SR,> 100 µM (inactive)
same,GI50,HT-29,> 100 µM (inactive)
same,GI50,MOLT-4,> 100 µM (inactive)
same,GI50,A498,39.2 µM (inactive)
same,GI50,DMS-273,> 100 µM (inactive)
same,GI50,SNB-78,42.4 µM (inactive)
same,GI50,NCI-H460,> 100 µM (inactive)
same,GI50,Malme-3M,> 100 µM (inactive)
same,GI50,U-251,> 100 µM (inactive)
same,GI50,COLO 205,> 100 µM (inactive)
same,GI50,RPMI-8226,75.3 µM (inactive)
same,GI50,DLD-1,> 100 µM (inactive)
same,GI50,DMS-114,66.8 µM (inactive)
same,GI50,UACC-62,> 100 µM (inactive)
same,GI50,SK-OV-3,> 100 µM (inactive)
same,GI50,HL-60,> 100 µM (inactive)
same,GI50,SN12C,> 100 µM (inactive)
same,GI50,M19-MEL,> 100 µM (inactive)
same,GI50,M14,> 100 µM (inactive)
same,GI50,OVCAR-3,> 100 µM (inactive)
same,GI50,OVCAR-5,> 100 µM (inactive)
same,GI50,HCC 2998,> 100 µM (inactive)
same,GI50,TK-10,> 100 µM (inactive)
same,GI50,OVCAR-4,> 100 µM (inactive)
same,GI50,K562,> 100 µM (inactive)
same,GI50,RXF 393,58.9 µM (inactive)
same,GI50,LXFL 529,> 100 µM (inactive)
same,GI50,RXF 631,> 100 µM (inactive)
same,GI50,SK-MEL-2,> 100 µM (inactive)
same,GI50,UACC-257,> 100 µM (inactive)
same,GI50,LOX IMVI,> 100 µM (inactive)
same,GI50,SNB-19,> 100 µM (inactive)
same,GI50,SNB-75,29 µM (inactive)
same,GI50,ACHN,> 100 µM (inactive)
N#CCC(=O)N/N=C1/C(=O)N(c2cc(Cl)ccc2Cl)C(=O)C(=O)C1c1nc2ccccc2s1 (stereo unspecified),GI50,HOP-62,> 100 µM (inactive)
same,GI50,HOP-18,72.9 µM (inactive)
same,GI50,KM12,> 100 µM (inactive)
same,GI50,UO-31,36.9 µM (inactive)
same,GI50,SF-295,94.4 µM (inactive)
same,GI50,EKVX,43.4 µM (inactive)
same,GI50,IGROV-1,> 100 µM (inactive)
same,GI50,HCT-15,> 100 µM
same,GI50,NCI-H522,61 µM (inactive)
same,GI50,SF-539,> 100 µM (inactive)
same,GI50,KM-20L2,> 100 µM (inactive)
same,GI50,CCRF-CEM,36.9 µM (inactive)
same,GI50,SF-268,88.3 µM (inactive)
same,GI50,NCI-H23,> 100 µM (inactive)
same,GI50,OVCAR-8,81.5 µM (inactive)
same,GI50,SK-MEL-5,> 100 µM (inactive)
same,GI50,HCT-116,84.7 µM (inactive)
same,GI50,NCI-H226,> 100 µM (inactive)
same,GI50,CAKI-1,29.5 µM (inactive)
same,GI50,SK-MEL-28,> 100 µM (inactive)
same,GI50,A549,> 100 µM (inactive)
same,GI50,SW-620,73.5 µM (inactive)
same,GI50,HT-29,> 100 µM (inactive)
same,GI50,MOLT-4,45.9 µM (inactive)
same,GI50,A498,> 100 µM (inactive)
same,GI50,DMS-273,> 100 µM (inactive)
same,GI50,SNB-78,> 100 µM (inactive)
same,GI50,NCI-H460,95.7 µM (inactive)
same,GI50,Malme-3M,> 100 µM (inactive)
same,GI50,U-251,80.9 µM (inactive)
same,GI50,COLO 205,> 100 µM (inactive)
same,GI50,RPMI-8226,56.8 µM (inactive)
same,GI50,DLD-1,> 100 µM (inactive)
same,GI50,DMS-114,> 100 µM (inactive)
same,GI50,UACC-62,29.8 µM (inactive)
same,GI50,SK-OV-3,> 100 µM (inactive)
same,GI50,HL-60,43.9 µM (inactive)
same,GI50,SN12C,> 100 µM (inactive)
same,GI50,M19-MEL,77.1 µM (inactive)
same,GI50,M14,> 100 µM (inactive)
same,GI50,OVCAR-3,54.6 µM (inactive)
same,GI50,OVCAR-5,> 100 µM (inactive)
same,GI50,HCC 2998,> 100 µM (inactive)
same,GI50,TK-10,81.8 µM (inactive)
same,GI50,OVCAR-4,> 100 µM (inactive)
same,GI50,K562,> 100 µM (inactive)
same,GI50,786-0,> 100 µM (inactive)
same,GI50,RXF 393,< 0.01 µM (active)
same,GI50,LXFL 529,> 100 µM (inactive)
same,GI50,RXF 631,55.3 µM (inactive)
same,GI50,HOP-92,19.8 µM (inactive)
same,GI50,SK-MEL-2,37.9 µM (inactive)
same,GI50,UACC-257,> 100 µM (inactive)
same,GI50,LOX IMVI,64 µM (inactive)
same,GI50,SNB-19,64.3 µM (inactive)
same,GI50,SNB-75,38 µM (inactive)
same,GI50,ACHN,> 100 µM (inactive)
CCCCCCCCCCCCCCCCCC(=O)O[C@H](COC(=O)CCCCCCCCCCC)COC(=O)CCCCCCCCCCCCCCC,GI50,HOP-62,> 100 µM (inactive)
same,GI50,HOP-18,> 100 µM (inactive)
same,GI50,UO-31,> 100 µM (inactive)
same,GI50,SF-295,> 100 µM (inactive)
same,GI50,IGROV-1,> 100 µM (inactive)
same,GI50,HCT-15,> 100 µM
same,GI50,KM-20L2,> 100 µM (inactive)
same,GI50,CCRF-CEM,> 100 µM (inactive)
same,GI50,SF-268,> 100 µM (inactive)
same,GI50,NCI-H23,> 100 µM (inactive)
same,GI50,OVCAR-8,> 100 µM (inactive)
same,GI50,SK-MEL-5,> 100 µM (inactive)
same,GI50,HCT-116,> 100 µM (inactive)
same,GI50,NCI-H226,> 100 µM (inactive)
same,GI50,CAKI-1,> 100 µM (inactive)
same,GI50,SK-MEL-28,> 100 µM (inactive)
same,GI50,A549,> 100 µM (inactive)
same,GI50,SW-620,> 100 µM (inactive)
same,GI50,SR,> 100 µM (inactive)
same,GI50,HT-29,> 100 µM (inactive)
same,GI50,MOLT-4,> 100 µM (inactive)
same,GI50,A498,> 100 µM (inactive)
same,GI50,DMS-273,> 100 µM (inactive)
same,GI50,NCI-H460,> 100 µM (inactive)
same,GI50,Malme-3M,> 100 µM (inactive)
same,GI50,U-251,> 100 µM (inactive)
same,GI50,COLO 205,> 100 µM (inactive)
same,GI50,RPMI-8226,> 100 µM (inactive)
same,GI50,DLD-1,> 100 µM (inactive)
same,GI50,DMS-114,> 100 µM (inactive)
same,GI50,UACC-62,> 100 µM (inactive)
same,GI50,SK-OV-3,> 100 µM (inactive)
same,GI50,HL-60,> 100 µM (inactive)
same,GI50,SN12C,> 100 µM (inactive)
same,GI50,M19-MEL,> 100 µM (inactive)
same,GI50,M14,> 100 µM (inactive)
same,GI50,OVCAR-3,> 100 µM (inactive)
same,GI50,OVCAR-5,> 100 µM (inactive)
same,GI50,HCC 2998,> 100 µM (inactive)
same,GI50,TK-10,> 100 µM (inactive)
same,GI50,OVCAR-4,> 100 µM (inactive)
same,GI50,K562,> 100 µM (inactive)
same,GI50,786-0,> 100 µM (inactive)
same,GI50,LXFL 529,> 100 µM (inactive)
same,GI50,RXF 631,> 100 µM (inactive)
same,GI50,HOP-92,> 100 µM (inactive)
same,GI50,UACC-257,> 100 µM (inactive)
same,GI50,LOX IMVI,> 100 µM (inactive)
same,GI50,SNB-19,> 100 µM (inactive)
same,GI50,ACHN,> 100 µM (inactive)
